≈ marks a conversion by molar mass, not a printed value. Calls of active or inactive are those of the source. The calls are words filed in the database; no cut-off is given here.
Assays:
[1] = molecular target: T1, Mycobacterial beta-ketoacyl-[acyl-carrier-protein] synthase III (Mycobacterium tuberculosis, UniProt P9WNG3); assay: Inhibition of Mycobacterium tuberculosis FabH
T1 sequence (P9WNG3 whole entry): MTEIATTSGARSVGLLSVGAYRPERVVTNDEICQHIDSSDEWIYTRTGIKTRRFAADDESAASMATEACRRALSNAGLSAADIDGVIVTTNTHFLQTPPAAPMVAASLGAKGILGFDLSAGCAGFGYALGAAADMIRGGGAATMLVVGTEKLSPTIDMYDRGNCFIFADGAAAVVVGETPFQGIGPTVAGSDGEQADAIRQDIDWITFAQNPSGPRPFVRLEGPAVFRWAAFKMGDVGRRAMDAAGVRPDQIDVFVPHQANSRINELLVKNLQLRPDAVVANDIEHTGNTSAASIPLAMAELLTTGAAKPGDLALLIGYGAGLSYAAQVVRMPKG

[2] = Inhibition of Escherichia coli FabH
Escherichia coli [3] = assay: Antibacterial activity against Escherichia coli tolC mutant; type: functional
[4] = molecular target: T2, Beta-ketoacyl-ACP-synthase III (Plasmodium falciparum, UniProt O77078); assay: Inhibition of Plasmodium falciparum FabH
T2 sequence (O77078 whole entry): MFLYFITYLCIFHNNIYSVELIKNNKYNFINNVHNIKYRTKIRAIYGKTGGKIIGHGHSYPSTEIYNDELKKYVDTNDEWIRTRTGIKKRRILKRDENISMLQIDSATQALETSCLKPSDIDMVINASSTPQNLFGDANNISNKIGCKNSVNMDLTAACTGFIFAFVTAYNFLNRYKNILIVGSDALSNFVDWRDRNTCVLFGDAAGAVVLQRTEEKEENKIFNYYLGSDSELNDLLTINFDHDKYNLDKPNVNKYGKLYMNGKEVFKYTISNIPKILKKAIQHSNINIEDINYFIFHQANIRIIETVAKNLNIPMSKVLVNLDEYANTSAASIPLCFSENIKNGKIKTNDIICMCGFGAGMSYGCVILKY

Escherichia coli [5] = assay: Inhibition of Escherichia coli FabH at below 10 uM
[6] = molecular target: T3, Beta-ketoacyl-ACP-synthase III (Plasmodium falciparum) (UniProt O77078); assay: Inhibition of Plasmodium falciparum FabH at below 100 uM
T3 sequence (whole entry): T2 sequence (O77078 whole entry)

Plasmodium falciparum = assay: Antiplasmodial activity against chloroquine-sensitive Plasmodium falciparum D6; type: functional, organism-based
Escherichia coli [7] = assay: Inhibition of Escherichia coli FabH assessed as restoration activity in presence of phosphate buffer after 16 hrs; parameters: scale not given: the % may be the effect or the level left

Row | Structure (SMILES) | IC50 [1] | IC50 [2] | MIC99 (Escherichia coli [3]) | IC50 [4] | Activity (Escherichia coli [5]) | Activity [6] | IC50 (Plasmodium falciparum) | Activity (Escherichia coli [7])
1 | CS(=O)(=O)c1cc(O)c2ccccc2c1O | 3.53 nM | 87.3 nM | 9.7 µg/mL (≈ 40.7 µM) | 27.4 nM |  |  |  | 
2 | Cc1ccc(SC2=CC(=O)c3ccccc3C2=O)cc1 | 112 nM |  |  |  | inactive | inactive |  | 
3 | O=C(O)CCS(=O)(=O)c1cc(O)c2ccccc2c1O | 3.53 nM | 96.5 nM |  | 46.5 nM |  |  |  | 
4 | CC(=O)Nc1ccc(S(=O)(=O)c2cc(O)c3ccccc3c2O)cc1 | 3.76 nM | 11.8 nM | 12.3 µg/mL (≈ 34.4 µM) | 29.6 nM |  |  | 4.98 µg/mL (≈ 13.9 µM) | 
5 | Cc1ccc(S(=O)(=O)c2cc(O)ccc2O)cc1 | 34.4 nM | > 10000 nM | > 90 µg/mL |  | inactive | inactive | 31.3 µg/mL (≈ 119 µM) | 
6 | Cc1ccc(S(=O)(=O)c2cc(O)c3cc4ccccc4cc3c2O)cc1 | 8.47 nM | 112 nM |  | 341 nM |  |  |  | 
7 | Cc1ccc(S(=O)(=O)c2cc(O)c3ccccc3c2O)cc1 | 0.61 nM | 13.6 nM | 14.1 µg/mL (≈ 44.9 µM) | 73.6 nM |  |  | 7.69 µg/mL (≈ 24.5 µM) | 90%
8 | O=S(=O)(c1ccc2ccccc2c1)c1cc(O)c2ccccc2c1O | 1.49 nM | 15.4 nM |  | 393 nM |  |  |  | 
9 | O=S(=O)(c1ccccc1)c1cc(O)c2ccccc2c1O | 2.84 nM | 21.2 nM |  | 279 nM |  |  |  | 
10 | Cc1ccc(S(=O)(=O)c2ccc3ccccc3c2)cc1 | 138 nM | > 10000 nM | > 90 µg/mL |  | inactive | inactive | 8.74 µg/mL (≈ 31 µM) | 
11 | Cc1ccc(S(=O)(=O)C2=CC(=O)c3ccccc3C2=O)cc1 | 1.99 nM | 187 nM |  | 1420 nM |  |  |  | 
12 | CC(=O)Nc1ccc(S(=O)(=O)c2cc(O)ccc2O)cc1 | 31.4 nM | > 10000 nM | > 90 µg/mL |  | inactive | inactive | 3.96 µg/mL (≈ 12.9 µM) | 
13 | O=S(=O)(c1ccc(Cl)cc1)c1cc(O)c2ccccc2c1O | 3.61 nM | 8.8 nM |  | 129 nM |  |  | 3.23 µg/mL (≈ 9.65 µM) | 
14 | CCCc1ccc(S(=O)(=O)c2cc(O)c3ccccc3c2O)cc1 | 3.09 nM | 9.7 nM |  | 72.6 nM |  |  |  | 

— ChEMBL document CHEMBL1152200, “Synthesis and biological evaluation of novel sulfonyl-naphthalene-1,4-diols as FabH inhibitors” (Bioorg Med Chem Lett, 2008)
